Source: the supplement of paper PMC13207355

Assays:
Conditions in all cases: exposure time: 72 h
E57 [1] = patient-derived glioblastoma stem cells of mesenchymal subtype; assay: phenotypic distance (Euclidean, principal components) from DMSO controls (arbitrary units); higher = stronger morphological change
E28 [2] = patient-derived glioblastoma stem cells of classical subtype; assay: as above
E21 [3] = patient-derived glioblastoma stem cells of mesenchymal subtype; assay: as above
FT3469 [4] = normal neural stem cell line; assay: as above
E34 [5] = patient-derived glioblastoma stem cells of proneural subtype; assay: as above
E13 [6] = patient-derived glioblastoma stem cells of classical subtype; assay: as above
E57 [7] = assay: surviving fraction (nuclei count normalised to DMSO); higher = more cells surviving (less toxic)
E28 [8] = assay: as above
E21 [9] = assay: as above
FT3469 [10] = assay: as above
E34 [11] = assay: as above
E13 [12] = assay: as above
E31 = patient-derived glioblastoma stem cells of proneural subtype; assay: phenotypic distance (Euclidean, principal components) from DMSO controls (arbitrary units); higher = stronger morphological change
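Throughout, for phenotypic distance (Euclidean, principal components) from DMSO controls: cell Painting imaging in 384-well plates, CellProfiler features reduced to at least 20 principal components, Euclidean distance versus same-plate DMSO vehicle wells (0.1% v/v), median over six images per well.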
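Throughout, for surviving fraction (nuclei count normalised to DMSO): nuclei counted by high-content imaging of Hoechst-stained cells in laminin-coated 384-well plates, relative to 0.1% DMSO vehicle wells, with staurosporine as cell-death control.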

CN[C@@H](C)C(=O)N[C@H](C(=O)N1CCC[C@H]1C(=O)N[C@H]1c2ccccc2C[C@H]1OCC#CC#CCO[C@@H]1Cc2ccccc2[C@@H]1NC(=O)[C@@H]1CCCN1C(=O)[C@@H](NC(=O)[C@H](C)NC)C1CCCCC1)C1CCCCC1 [AZD5582]
Conditions | phenotypic distance | surviving fraction
E13 [6], 4.1 nM | 1.42 | –
E13 [6], 12.3 nM | 1.1 | –
E13 [6], 37 nM | 1.5 | –
E13 [6], 111.1 nM | 1.31 | –
E13 [6], 333.3 nM | 1.39 | –
E13 [6], 1000 nM | 1.63 | –
E13 [6], 3000 nM | 1.79 | –
E13 [12], 4.1 nM | – | 0.897
E13 [12], 12.3 nM | – | 0.9073
E13 [12], 37 nM | – | 0.764
E13 [12], 111.1 nM | – | 0.8218
E13 [12], 333.3 nM | – | 0.814
E13 [12], 1000 nM | – | 0.789
E13 [12], 3000 nM | – | 0.755
E21 [3], 4.1 nM | 1.08 | –
E21 [3], 12.3 nM | 1.03 | –
E21 [3], 37 nM | 1.42 | –
E21 [3], 111.1 nM | 1.39 | –
E21 [3], 333.3 nM | 1.47 | –
E21 [3], 1000 nM | 1.24 | –
E21 [3], 3000 nM | 1.92 | –
E21 [9], 4.1 nM | – | 0.73
E21 [9], 12.3 nM | – | 0.739
E21 [9], 37 nM | – | 0.742
E21 [9], 111.1 nM | – | 0.721
E21 [9], 333.3 nM | – | 0.628
E21 [9], 1000 nM | – | 0.633
E21 [9], 3000 nM | – | 0.5049
E28 [2], 4.1 nM | 0.701 | –
E28 [2], 12.3 nM | 0.512 | –
E28 [2], 37 nM | 0.645 | –
E28 [2], 111.1 nM | 0.558 | –
E28 [2], 333.3 nM | 0.744 | –
E28 [2], 1000 nM | 0.712 | –
E28 [2], 3000 nM | 2.48 | –
E28 [8], 4.1 nM | – | 0.975
E28 [8], 12.3 nM | – | 1
E28 [8], 37 nM | – | 0.978
E28 [8], 111.1 nM | – | 1.01
E28 [8], 333.3 nM | – | 1.021
E28 [8], 1000 nM | – | 0.944
E28 [8], 3000 nM | – | 0.802
E34 [5], 4.1 nM | 0.7 | –
E34 [5], 12.3 nM | 0.804 | –
E34 [5], 37 nM | 0.881 | –
E34 [5], 111.1 nM | 1.07 | –
E34 [5], 333.3 nM | 0.735 | –
E34 [5], 1000 nM | 0.779 | –
E34 [5], 3000 nM | 1.26 | –
E34 [11], 4.1 nM | – | 0.925
E34 [11], 12.3 nM | – | 0.838
E34 [11], 37 nM | – | 0.855
E34 [11], 111.1 nM | – | 0.911
E34 [11], 333.3 nM | – | 0.9
E34 [11], 1000 nM | – | 0.847
E34 [11], 3000 nM | – | 0.764
E57 [1], 4.1 nM | 0.861 | –
E57 [1], 12.3 nM | 1.22 | –
E57 [1], 37 nM | 1.41 | –
E57 [1], 111.1 nM | 2.04 | –
E57 [1], 333.3 nM | 2.285 | –
E57 [1], 1000 nM | 2.41 | –
E57 [1], 3000 nM | 2.795 | –
E57 [7], 4.1 nM | – | 0.95
E57 [7], 12.3 nM | – | 0.901
E57 [7], 37 nM | – | 0.824
E57 [7], 111.1 nM | – | 0.756
E57 [7], 333.3 nM | – | 0.756
E57 [7], 1000 nM | – | 0.719
E57 [7], 3000 nM | – | 0.771
FT3469 [4], 4.1 nM | 0.951 | –
FT3469 [4], 12.3 nM | 1.11 | –
FT3469 [4], 37 nM | 1.34 | –
FT3469 [4], 111.1 nM | 0.955 | –
FT3469 [4], 333.3 nM | 0.844 | –
FT3469 [4], 1000 nM | 1.57 | –
FT3469 [4], 3000 nM | 1.61 | –
FT3469 [10], 4.1 nM | – | 1.01
FT3469 [10], 12.3 nM | – | 0.996
FT3469 [10], 37 nM | – | 1.07
FT3469 [10], 111.1 nM | – | 1.03
FT3469 [10], 333.3 nM | – | 1.09
FT3469 [10], 1000 nM | – | 0.918
FT3469 [10], 3000 nM | – | 0.951

CC(C)(C)CC(C)(C)c1ccc(OCCOCC[N+](C)(C)Cc2ccccc2)cc1 [Benzethonium chloride]
phenotypic distance
Conditions | E13 [6] | E21 [3] | E28 [2] | E31 | E34 [5] | E57 [1] | FT3469 [4]
4.11523 nM | 0.537 | 0.773 | 0.718 | 0.922 | 0.73 | 0.566 | 0.694
12.34567901 nM | 0.594 | 1.03 | 0.685 | 0.452 | 0.622 | 0.67 | 1.16
37.037 nM | 0.837 | 0.654 | 0.4 | 0.793 | 0.82 | 0.808 | 0.855
111.1111111 nM | 1.05 | 1 | 0.716 | 0.714 | 0.847 | 0.566 | 0.746
333.333 nM | 0.65 | 0.939 | 0.667 | 1.42 | 0.91 | 0.524 | 0.802
1000 nM | 1.22 | 1.3 | 0.382 | 1.81 | 1.21 | 2.04 | 2.79
3000 nM | 4.92 | 3.86 | 4.89 | 12.9 | 2.98 | 4.76 | 2.88

CN1C(=O)[C@@]23C[C@]4([C@]56C[C@@]78SS[C@@](CO)(C(=O)N7[C@H]5Nc5ccccc56)N(C)C8=O)c5ccccc5N[C@@H]4N2C(=O)[C@]1(CO)SS3 [Chaetocin]
Conditions | phenotypic distance | surviving fraction
E13 [6], 4.1 nM | 2.76 | –
E13 [6], 12.3 nM | 3.18 | –
E13 [6], 37 nM | 5.87 | –
E13 [6], 111.1 nM | 7.1 | –
E13 [6], 333.3 nM | 10.5 | –
E13 [6], 1000 nM | 9.83 | –
E13 [6], 3000 nM | 10.7 | –
E13 [12], 4.1 nM | – | 0.552
E13 [12], 12.3 nM | – | 0.4
E13 [12], 37 nM | – | 0.0566
E13 [12], 111.1 nM | – | 0.0323
E13 [12], 333.3 nM | – | 0.00998
E13 [12], 1000 nM | – | 0.0119
E13 [12], 3000 nM | – | 0.0124
E21 [3], 4.1 nM | 4.37 | –
E21 [3], 12.3 nM | 4.95 | –
E21 [3], 37 nM | 7.07 | –
E21 [3], 111.1 nM | 10.1 | –
E21 [3], 333.3 nM | 12.7 | –
E21 [3], 1000 nM | 11.4 | –
E21 [3], 3000 nM | 14.2 | –
E21 [9], 4.1 nM | – | 0.253
E21 [9], 12.3 nM | – | 0.0911
E21 [9], 37 nM | – | 0.0242
E21 [9], 111.1 nM | – | 0.00808
E21 [9], 333.3 nM | – | 0.00862
E21 [9], 1000 nM | – | 0.0113
E21 [9], 3000 nM | – | 0.00808
E28 [2], 4.1 nM | 1.98 | –
E28 [2], 12.3 nM | 2.51 | –
E28 [2], 37 nM | 3.933 | –
E28 [2], 111.1 nM | 5.55 | –
E28 [2], 333.3 nM | 10.4 | –
E28 [2], 1000 nM | 9.23 | –
E28 [2], 3000 nM | 9.7 | –
E28 [8], 4.1 nM | – | 0.328
E28 [8], 12.3 nM | – | 0.281
E28 [8], 37 nM | – | 0.1561
E28 [8], 111.1 nM | – | 0.111
E28 [8], 333.3 nM | – | 0.00802
E28 [8], 1000 nM | – | 0.00283
E28 [8], 3000 nM | – | 0.00707
E34 [5], 4.1 nM | 2.24 | –
E34 [5], 12.3 nM | 3.35 | –
E34 [5], 37 nM | 6.13 | –
E34 [5], 111.1 nM | 7.1327 | –
E34 [5], 333.3 nM | 10.8 | –
E34 [5], 1000 nM | 13 | –
E34 [5], 3000 nM | 11.9 | –
E34 [11], 4.1 nM | – | 0.41
E34 [11], 12.3 nM | – | 0.345
E34 [11], 37 nM | – | 0.149
E34 [11], 111.1 nM | – | 0.0449
E34 [11], 333.3 nM | – | 0.0206
E34 [11], 1000 nM | – | 0.0187
E34 [11], 3000 nM | – | 0.0159
E57 [1], 4.1 nM | 2.84 | –
E57 [1], 12.3 nM | 3.23 | –
E57 [1], 37 nM | 4.87 | –
E57 [1], 111.1 nM | 5.13 | –
E57 [1], 333.3 nM | 8.15 | –
E57 [1], 1000 nM | 9.97 | –
E57 [1], 3000 nM | 10.7 | –
E57 [7], 4.1 nM | – | 0.765
E57 [7], 12.3 nM | – | 0.402
E57 [7], 37 nM | – | 0.056
E57 [7], 111.1 nM | – | 0.0464
E57 [7], 333.3 nM | – | 0.00359
E57 [7], 1000 nM | – | 0.00745
E57 [7], 3000 nM | – | 0.00248
FT3469 [4], 4.1 nM | 3.69 | –
FT3469 [4], 12.3 nM | 3.49 | –
FT3469 [4], 37 nM | 4.19 | –
FT3469 [4], 111.1 nM | 5.8 | –
FT3469 [4], 333.3 nM | 10.7 | –
FT3469 [4], 1000 nM | 10.1 | –
FT3469 [4], 3000 nM | 9.44 | –
FT3469 [10], 4.1 nM | – | 0.518
FT3469 [10], 12.3 nM | – | 0.481
FT3469 [10], 37 nM | – | 0.364
FT3469 [10], 111.1 nM | – | 0.194
FT3469 [10], 333.3 nM | – | 0.00806
FT3469 [10], 1000 nM | – | 0.0296
FT3469 [10], 3000 nM | – | 0.0116
